Source: US20250215016A1, “ISOXAZOLE-HETEROCYCLIC DERIVATIVE, PHARMACEUTICAL COMPOSITION AND USE” (SHANGHAI SIMR BIOTECHNOLOGY CO., LTD, priority 2022, published 2025)

What was measured:
[1] = molecular target: human α5β3γ2 receptor (α5-GABAA receptor) (Homo sapiens (Human), UniProt P18507+P31644); test: Radioligand (3H-flunitrazepam) competition binding assay, BZD site; details: 3H-flunitrazepam 1 nM; HEK293 membranes expressing human α5β3γ2
Text: α, β and γ subunits are essential for the formation of a complete functional GABAA receptor. In this example, HEK293 cell strains stably expressing human α5-GABAA receptor (comprising α5β3γ2 subunit) and α2-GABAA receptor (comprising α2β3γ2 subunit) were constructed and screened, respectively, by liposome transfection method (Felgner, P. L., et al., Proceedings of the National Academy of Sciences, 1987, 84:7413-7417). The specific subunit protein sequences are as follows: α5 subunit (protein sequence can be found in GenBank accession number: NM_000810.3); α2 subunit (protein sequence can be found in GenBank accession number: NM_000807.4); β3 subunit (protein sequence can be found in GenBank accession number: NM_000814.5); γ2 subunit (protein sequence can be found in GenBank accession number: NM_000816.3).
(§1) The above cell lines were subcultured. Amplification of α5β3γ2-HEK293 and α2β3γ2-HEK293 cells was used to test the affinity of the compounds to benzodiazepine site (BZD) of the GABAA receptor. During the passage of α5β3γ2-HEK293 cells, some of the suspended cells were spread on a glass slide pretreated with Poly-D-Lysine for electrophysiological testing.
Flunitrazepam is a non-specific reagent that binds to the BZD site efficiently. The affinity of the compounds to the BZD sites of the human α5β3γ2 and α2β3γ2 receptors can be determined by competing the compound with ^3H-flunitrazepam (isotope ^3H-labeled flunitrazepam) for binding to these two receptors.
Membrane preparation: HEK293 cells stably expressing human α5β3γ2 receptor or α2β3γ2 receptor were collected, suspended in 50 mM Tris-HCl buffer (pH=7.4), homogenized on ice by a homogenizer for 20 seconds 10 times, and centrifuged at 4° C., 1000 g for 10 min. The supernatant was collected, and the above steps were repeated. The supernatant was centrifuged (33800 g; centrifuge purchased from Thermo, rotor model: A27-8×50) at 4° C. for 60 min, and the precipitate was resuspended in Tris buffer (50 mM Tris-HCl, 10 mM MgCl2, 0.5 mM EDTA, 10% glycerol). The precipitate was the cell membrane. Protein content was determined by BCA (Bicinchoninic Acid) method (BCA kit from Pierce (Annoron)). The cell membrane was prepared into 1 ml aliquot and stored at −80° C.
Radioligand competition binding assay: the assay was carried out in a 200 μL system (96-well plate from Agilent) with 100 μL of cell membrane. The concentration of ^3H-flunitazepam (from PerkinElmer, lot: NET567250 UC) was 1 nM and the concentration of test compound was in the range 1×10^−5-10^−6 M. Flumazenil (from Tocris; lot: 1318) was used as a control. 1 μL of 2 mM flumazenil (final concentration 10 μM) was added to the Low signal control well (Low control, LC) and 1 μL of DMSO (from Sigma aldrich, lot: 472301) was added to the High signal control well (High control, HC). The final target membrane protein concentration was 5 μg/well. All test compound sample stocks were 10 mM DMSO solutions. The working concentration of the samples is to dilute all samples with DMSO to 0.2 mM, and then perform 4-fold continuous gradient dilution for a total of 8 concentration gradients. The 96-well plate was sealed with a plate sealing membrane and then incubated on a shaker at room temperature for 1 hour. Meanwhile, GF/C filter plate was soaked with a plate soaking buffer (0.3% PEI, polyethyleneimine, purchased from Sigma aldrich, model: P314, stored at 4° C.) for at least 0.5 hours. After completion of binding incubation, the cells were collected with a cell collector onto the GF/C filter plate and washed four times with a plate washing buffer (50 mM Tris-HCl, pH 7.4, stored at 4° C.). […]

[2] = molecular target: α5-GABAA receptor (Homo sapiens (Human), UniProt P18507+P31644); test: Whole-cell patch clamp electrophysiology, inverse regulation activity in α5β3γ2-HEK293 cells; type: cell-based; details: compound 100 nM; GABA 0.05-0.06 μM (about EC7-8); clamped at −60 mV; read-out: Inverse regulation efficiency to α5-GABAA receptor
Text: α, β and γ subunits are essential for the formation of a complete functional GABAA receptor. […] The specific subunit protein sequences are as follows: α5 subunit (protein sequence can be found in GenBank accession number: NM_000810.3); α2 subunit (protein sequence can be found in GenBank accession number: NM_000807.4); β3 subunit (protein sequence can be found in GenBank accession number: NM_000814.5); γ2 subunit (protein sequence can be found in GenBank accession number: NM_000816.3).
as §1
The inverse regulation activity of the test drugs on α5-GABAA receptor was detected by an electrophysiological method. The specific method was as follows:
Compound concentration setting: the final concentration of the compounds used for compound screening was 100 nM. GABA concentration was 0.05-0.06 μM (about EC7-8). […] The extracellular fluid (ECS) ingredients for electrophysiology were as follows: 150 mM NaCl, 5 mM KCl, 2.5 mM CaCl2, 1 mM MgCl2, 10 mM HEPES and 10 mM glucose (pH 7.4); the electrode internal solution (ICS) formula for electrophysiology was as follows: 140 mM CsCl, 11 mM EGTA, 10 mM HEPES, 2 mM CaCl2, 1 mM MgCl2, 4 mM MgATP, 2 mM TEA (pH 7.3). The above reagents were all purchased from Sigma aldrich. GABA (γ-aminobutyric acid, from sigma aldrich, lot: A5385) powder was prepared into a stock solution with pure water and then diluted in ECS. The compound was first prepared into a 4 mM stock solution with DMSO, and then gradually diluted in corresponding concentrations of GABA-ECS. The solutions were all prepared fresh prior to electrophysiological testing.
Electrophysiological signal acquisition were performed by using EPC 10 amplifier and PatchMaster software (HEKA) or Axon 700 B amplifier and Clampex software (AXON). The recording electrode was made by drawing borosilicate glass (purchased from sutter), and has an electrode resistance of 4˜6 MΩ. Extracellular administration was carried out using ALA-VC-8PG (purchased from ALA, USA) system. A single independently grown cell was selected, and lysis was performed after the glass electrode and the cell forming a good seal, to form a whole cell mode. With the cellular membrane potential clamped at −60 mV, recording was carried out in the Gap-free mode. For the test, extracellular fluid was first applied extracellularly for about 20 seconds. After baseline (Iprebaseline) was stabilized, the extracellular fluid was switched to GABA-ECS. At this time, the current (Igaba) caused by GABA can be detected. At about 20-40 seconds, after the current stabilized, the extracellular fluid was switched to a mixed solution of the compound and GABA-ECS, until the current (Itreatment) caused by both the compound and GABA can be detected. Finally, the solution was switched to the extracellular fluid and the test was terminated after recording for 20-40 seconds.
The experimental results were analyzed using PatchMaster v2x90.1 or PatchMaster v2x90.3 software (EPC 10 amplifier) and Clampex10.6 software (Axon700B amplifier). The current value of each stage was calculated according to the average value of the stabilized current under the corresponding conditions. We defined the control current as Igaba−Iprebaseline, and the current after compound treatment as Itreatment−Iprebaseline. The inverse regulation activity of the compounds is expressed as a percentage and is calculated according to the following formula: Inverse regulation efficiency=[(Itreatment−Igaba)/(Igaba−Iprebaseline)]×100%.

Structure (SMILES)	Ki [1] [nM]	inhibition at 0.1 µM [2] [%]
Cc1onc(-c2ccc(F)cc2)c1COc1ccc(-c2nnn3c2COCC3)cn1 [Compound 1, 3-(6-((3-(4-fluorophenyl)-5-methylisoxazol-4-yl)methoxy)pyridin-3-yl)-6,7-dihydro-4H-[1,2,3]triazolo[5,1-c][1,4]oxazine]	1.2	38
Cc1onc(-c2ccc(F)cc2)c1COc1cnc(N2CCN3CCNC(=O)[C@@H]3C2)cn1 [Compound 6, (S)-8-(5-((3-(4-fluorophenyl)-5-methylisoxazol-4-yl)methoxy)pyrazin-2-yl) hexahydro-2H-pyrazino[1,2-a]pyrazin-1 (6H)-one]	103	16
Cc1onc(-c2ccc(F)cc2)c1COc1ccc(-c2nnn3c2COCC3)nn1 [Compound 11, 3-(6-((3-(4-fluorophenyl)-5-methylisoxazol-4-yl)methoxy)pyridazin-3-yl)-6,7-dihydro-4H-[1,2,3]triazolo[5,1-c][1,4]oxazine]	0.6	45
CCN1CCn2c(nnc2-c2ccc(OCc3c(-c4ccc(F)cc4)noc3C)nc2)C1=O [Compound 13, 7-ethyl-3-(6-((3-(4-fluorophenyl)-5-methylisoxazol-4-yl)methoxy)pyridin-3-yl)-6,7-dihydro-[1,2,4]triazolo[4,3-a]pyrazin-8(5H)-one]	12.5	43
Cc1onc(-c2ccc(F)cc2)c1COc1ccc(-c2nnc3n2CCN(C)C3=O)nn1 [Compound 14, 3-(6-((3-(4-fluorophenyl)-5-methylisoxazol-4-yl)methoxy)pyridazin-3-yl)-7-methyl-6,7-dihydro-[1,2,4]triazolo[4,3-a]pyrazin-8(5H)-one]	2.5	49
Cc1onc(-c2ccc(F)cc2)c1COc1ccc(-c2nnc3n2CCC3)nn1 [Compound 22, 4-(((6-(6,7-dihydro-5H-pyrrolo[2,1-c][1,2,4]triazol-3-yl)pyridazin-3-yl)oxy)methyl)-3-(4-fluorophenyl)-5-methylisoxazole]	0.54	50
Cc1onc(-c2ccc(F)cc2)c1COc1ccc(-c2nnc3n2CCCO3)cn1 [Compound 25, 3-(6-((3-(4-fluorophenyl)-5-methylisoxazol-4-yl)methoxy)pyridin-3-yl)-6,7-dihydro-5H-[1,2,4]triazolo[3,4-b][1,3]oxazine]	22.1	50
Cc1onc(-c2ccc(F)cc2)c1COc1ccc(-c2ncc3n2CCOC3)cn1 [Compound 28, 3-(6-((3-(4-fluorophenyl)-5-methylisoxazol-4-yl)methoxy)pyridin-3-yl)-5,6-dihydro-8H-imidazo[5,1-c][1,4]oxazine]	32.9	42
Cc1onc(-c2ccc(F)cc2)c1COc1ccc(-c2nnc3n2CCS(=O)(=O)C3)nn1 [Compound 29, 3-(6-((3-(4-fluorophenyl)-5-methylisoxazol-4-yl)methoxy)pyridazin-3-yl)-5,6-dihydro-8H-[1,2,4]triazolo[3,4-c][1,4]thiazine 7,7-dioxide]	0.77	45
Cc1onc(-c2ccc(F)cc2)c1COc1ccc(N2CCn3c(C)nnc3C2)nn1 [Compound 34, 3-(4-fluorophenyl)-5-methyl-4-(((6-(3-methyl-5,6-dihydro-[1,2,4]triazolo[4,3-a]pyrazin-7(8H)-yl)pyridazin-3-yl)oxy)methyl)isoxazole]	2.44	39
Cc1onc(-c2ccc(F)cc2)c1COc1ccc(-c2cc3n(c(=O)n2)CC24CC(CN32)C4)cn1 [Compound 39, 3-(6-((3-(4-fluorophenyl)-5-methylisoxazol-4-yl)methoxy)pyridin-3-yl)-7,8-dihydro-1H,6H,9H-7,8a-methanopyrrolo[1′,2′:3,4]imidazo[1,2-c]pyrimidin-1-one]	6.31	44
